Laboratory results published in patent US11976083B2, “Inhibitors of peptidylarginine deiminases” (Gilead Sciences, Inc., priority 2020, dated 2024).

Molecular target: T1, human PAD4 (Homo sapiens, UniProt Q9UM07)
T1 construct: human PAD4 (NM_012387), A2-P663, was PCR amplified; His-SUMO (N, cleaved yes); made in house; host or cells: E. coli BL21(DE3)
Assay: In vitro PAD4 BAEE biochemical assay
Conditions: BAEE substrate 3 mM, 5 nM PAD4, 2 mM calcium chloride; geometric mean of multiple experiments
Text: In Vitro PAD4 BAEE Biochemical Assay
The enzymatic activity of human PAD4 was monitored in a biochemical assay in the presence or absence of compounds using the small peptidyl arginine mimic BAEE (Na-Benzoyl-L-arginine ethyl ester hydrochloride) as substrate. PAD4 activity led to deimination of BAEE and release of ammonia. Levels of ammonia were monitored by using an amine coupling reaction and were indicative of PAD4 enzymatic activity.
One hundred nanoliters of test compounds dissolved in DMSO at various concentrations were dispensed into a 384-well black OptiPlate using a Labcyte Echo instrument. Ten microliters of a solution of recombinant PAD4 and calcium chloride diluted in PAD4 assay buffer (50 mM MOPS [3-(N-morpholino) propanesulfonic acid], pH 7.6; 50 mM sodium chloride; 0.05% Tween-20; 2 mM dithiothreitol) was added to the compound-containing plate and was incubated for 30 minutes at 25° C. Ten microliters of a solution of BAEE (Sigma-Aldrich #B4500) diluted in PAD4 assay buffer was then added to start the reaction. Final concentrations were 5 nM PAD4, 2 mM calcium chloride, and 3 mM BAEE. The reaction mixture was incubated at 25° C. for 2 hours and was stopped with the addition of 10 microliters of a solution of 75 mM EDTA (Ethylenediaminetetraacetic acid) in PAD4 assay buffer. Thirty microliters of detection solution (5 mM o-phthalaldehyde, 50 mM MOPS [3-(N-morpholino) propanesulfonic acid], pH 7.6; 50 mM sodium chloride; 0.05% Tween-20; 5 mM dithiothreitol) was then added and the reaction was incubated for 1 hour at 25° C. The level of fluorescent thiol-substituted isoindole resulting from the reaction of ammonia, o-phthalaldehyde, and dithiothreitol was measured on an Envision plate reader (PerkinElmer) with 405 nm excitation and 535 nm emission.
Data were normalized based on maximum inhibition (50 micromolar of the covalent PAD inhibitor BB-Cl-Amidine (Bicker, K. L.; Anguish, L.; Chumanevich, A. A.; Cameron, M. D.; Cui, X.; Witalison, E.; Subramanian, V.; Zhang, X.; Chumanevich, A. P.; Hofseth, L. J.; Coonrod, S. A.; Thompson, P. R. ACS Med. Chem. Lett. 2012, 3, 1081-1085). and no inhibition (DMSO) controls. Least squares curve fittings were performed using a four-parameter variable slope nonlinear regression model. IC50 is defined as the concentration of compound required to inhibit 50% of maximum activity. IC50 values from multiple experiments were averaged by geometric mean and the standard deviation was calculated.

T1 sequence (Q9UM07 2-663): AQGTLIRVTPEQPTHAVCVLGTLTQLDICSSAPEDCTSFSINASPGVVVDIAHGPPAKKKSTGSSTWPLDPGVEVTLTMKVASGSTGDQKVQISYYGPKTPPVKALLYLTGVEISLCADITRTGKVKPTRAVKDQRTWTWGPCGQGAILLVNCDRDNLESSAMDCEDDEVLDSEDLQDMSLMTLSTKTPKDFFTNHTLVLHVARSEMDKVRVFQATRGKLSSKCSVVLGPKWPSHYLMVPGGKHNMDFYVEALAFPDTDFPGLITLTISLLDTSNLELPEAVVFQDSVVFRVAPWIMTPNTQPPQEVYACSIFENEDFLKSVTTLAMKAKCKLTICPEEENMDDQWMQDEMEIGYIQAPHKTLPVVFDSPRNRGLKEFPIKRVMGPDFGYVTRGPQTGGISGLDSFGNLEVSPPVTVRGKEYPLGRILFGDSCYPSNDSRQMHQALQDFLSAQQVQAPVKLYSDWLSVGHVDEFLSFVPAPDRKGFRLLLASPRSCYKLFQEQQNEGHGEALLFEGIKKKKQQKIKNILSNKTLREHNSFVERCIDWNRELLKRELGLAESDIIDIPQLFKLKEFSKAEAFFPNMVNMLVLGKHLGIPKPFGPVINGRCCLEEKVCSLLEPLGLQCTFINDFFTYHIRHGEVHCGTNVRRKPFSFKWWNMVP

IC50	SMILES
61 nM	CO[C@@H]1CCN(C(=O)c2cc(F)c3c(c2)nc(-c2cc4ccc5nc4n2CCCCCc2nc4ccccc4cc2C(=O)N(C)[C@@H]5C)n3C2CC2)C[C@@H]1N [Example 833, (2~{R})-21-[5-[(3~{S},4~ {R})-3-amino-4-methoxy-piperidine-1-carbonyl]-1-cyclopropyl-7-fluoro-benzimidazol-2-yl]-2,3-dimethyl-3,13,20,26-tetrazapentacyclo[18.5.2.0^ {5,14).0^{7,12}.0^ {23,27}]heptacosa-1(26),5(14),6,8,10,12, 21,23(27),24-nonaen-4-one]
65 nM	CO[C@@H]1CCN(C(=O)c2cc(F)c3c(c2)nc(-c2cc4ccc5nc4n2CCCCC[C@@H]2CC2C(=O)N[C@@H]5C)n3C)C[C@@H]1N (stereo partly drawn) [Example 512, (2~{R},5~{R},7~ {R})-14-[5-[(3~{S},4~{R})-3-amino-4-methoxy-piperidine-1-carbonyl]-7-fluoro-1-methyl-benzimidazol-2-yl]-2-methyl-3,13,19-triazatetracyclo[11.5.2.0^ {5,7}.0^{16,20}]icosa-1(19),14,16(20),17-tetraen-4-one]
211 nM	COc1cc(C(=O)N2C[C@H](N)C[C@H](C(F)F)C2)cc2nc(-c3cc4ccc5nc4n3CCCCC[C@@H]3C[C@H]3C(=O)N[C@@H]5C)n(C)c12 [Example 631, (2~{R},5~{R},7~{R})-14-[5-[(3~{R},5~{S})-3-amino-5-(difluoromethyl)piperidine-1-carbonyl]-7-methoxy-1-methyl-benzimidazol-2-yl]-2-methyl-3,13,19-triazatetracyclo[11.5.2.0^ {5,7}.0^{16,20}]icosa-1(19),14,16(20),17-tetraen-4-one]
5 nM	[2H]C1([2H])[C@H](N)[C@@H]2CC[C@@H](C2)N1C(=O)c1cc(OC)c2c(c1)nc(-c1cc3ccc4nc3n1CCCCCc1ccccc1C(=O)N[C@@H]4C)n2C [Example 770, (2~{R})-17-[5-[(1~{S},4~{R}, 5~{R})-4-amino-3,3-dideuterio-2-azabicyclo[3.2.1]octane-2-carbonyl]-7-methoxy-1-methyl-benzimidazol-2-yl]-2-methyl-3,16,22-triazatetracyclo[14.5.2.0^ {5,10).0^{19,23}]tricosa-1(22),5(10),6,8,17,19(23), 20-heptaen-4-one]
18 nM	COc1cc(C(=O)N2C[C@H](N)[C@@H]3CC[C@H]2C3)cc2nc(-c3cc4ccc5nc4n3CCCCCC[C@](F)(c3ccccn3)C(=O)N[C@@H]5C)n(C)c12 [Example 883, (8~{S},11~{R})-17-[5-[(1~{S},4~{R},5~{R})-4-amino-2-azabicyclo[3.2.1]octane-2-carbonyl]-7-methoxy-1-methyl-benzimidazol-2-yl]-8-fluoro-11-methyl-8-(2-pyridyl)-1,10,19-triazatricyclo[10.5.2.0^ {15,18}]nonadeca-12(19), 13,15(18),16-tetraen-9-one]
80 nM	COc1cc(C(=O)N2[C@H]3CC[C@@H]2[C@H](N)C3)cc2nc(-c3cc4ccc5nc4n3CCC3(CCOCC(=O)N[C@@H]5C)CC3)c(C)n12 [Example 330, (11~{R})-17-[7-[(1~{R},2~{R},4~{S})-2-amino-7-azabicyclo[2.2.1]heptane-7-carbonyl]-5-methoxy-3-methyl-imidazo[1,2-a]pyridin-2-yl]-11-methyl-spiro[7-oxa-1,10,19-triazatricyclo[10.5.2.0^{15,18}]nonadeca-12(19),13,15(18),16-tetraene-4,1′-cyclopropane]-9-one]
303 nM	COc1cc(C(=O)N2CCC[C@@H](N)C2)cc2nc(-c3cc4ccc5nc4n3CCCCOCC(=O)N3CCC[C@H]53)n(C)c12 [Example 109, (2~{R})-15-[5-[(3~{R})-3-aminopiperidine-1-carbonyl]-7-methoxy-1-methyl-benzimidazol-2-yl]-9-oxa-6,14,20-triazatetracyclo[12.5.2.0^{2,6}.0^{17,21}] henicosa-1(20),15,17(21),18-tetraen-7-one]
21 nM	COc1cc(C(=O)N2C[C@H]3OC[C@@H]2[C@@H]3N)cc2nc(-c3cc4ccc5nc4n3CC(F)(F)CCC[C@@H]3C[C@H]3C(=O)N[C@@H]5C)n(C)c12 [Example 707, (2~{R},5~{R},7~{R})-14-[5-[(1~{R},4~{S},7~ {S})-7-amino-2-oxa-5-azabicyclo[2.2.1]heptane-5-carbonyl]-7-methoxy-1-methyl-benzimidazol-2-yl]-11,11-difluoro-2-methyl-3,13,19-triazatetracyclo[11.5.2.0^ {5,7}.0^{16,20}]icosa-1(19),14,16(20),17-tetraen-4-one]
31 nM	COc1cc(C(=O)N2[C@H]3CC[C@@H]2[C@H](N)C3)cc2nc(-c3cc4ccc5nc4n3CCCCCCCCC(=O)N5C)c(C)n12 [Example 127, 17-[7-[(1˜{R},2˜{R},4˜{S})-2-amino-7-azabicyclo[2.2.1]heptane-7-carbonyl]-5-methoxy-3-methyl-imidazo[1,2-a]pyridin-2-yl]-11-methyl-1,11,19-triazatricyclo[10.5.2.0^{15,18}]nonadeca-12(19),13,15(18),16-tetraen-10-one]
48 nM	COc1cc(C(=O)N[C@H]2CNCC[C@@H]2F)cc2nc(-c3cc4ccc5nc4n3CC/C=C\C[C@H]3C[C@H]3C(=O)N[C@@H]5C)n(C)c12 [Example 516, ~{N}-[(3~{S},4~ {S})-4-fluoro-3-piperidyl]-7-methoxy-1-methyl-2-[(2~{R},5~{R},7~ {S},9~{Z})-2-methyl-4-oxo-3,13,19-triazatetracyclo[11.5.2.0^ {5,7}.0^{16,20}]icosa-1(19),9,14,16(20),17-pentaen-14-yl]benzimidazole-5-carboxamide]
108 nM	COc1cc(C(=O)N2CCC[C@@H](N)C2)cc2nc(-c3cc4ccc5nc4n3C[C@H]3C[C@@H]3[C@H](C)OCCC(=O)N[C@@H]5C)n(C)c12 [Example 161, (3~{S},5~{S},6~{S},12~{R})-18-[5-[(3~{R})-3-aminopiperidine-1-carbonyl]-7-methoxy-1-methyl-benzimidazol-2-yl]-6,12-dimethyl-7-oxa-1,11,20-triazatetracyclo[11.5.2.0^{3,5}.0^{16,19}] icosa-13(20),14,16(19),17-tetraen-10-one]
406 nM	COc1cc(C(=O)N2[C@H]3CC[C@@H]2[C@H](N)C3)cc2nc(-c3cc4ccc5nc4n3CCCCCCCOc3ncccc3-5)n(C)c12 [Example 85, [(1˜{R},2˜{R},4˜{S})-2-amino-7-azabicyclo[2.2.1]heptan-7-yl]-[7-methoxy-1-methyl-2-(8-oxa-6,16,22-triazatetracyclo[14.5.2.0^{2,7}.0^{19,23}]tricosa-1(22),2,4,6,17,19(23),20-heptaen-17-yl)benzimidazol-5-yl]methanone]
97 nM	C[C@H]1NC(=O)[C@@H]2CC2CCCC(F)(F)Cn2c(-c3nc4cc(C(=O)N5C[C@H]6CC[C@@H]5[C@@H]6N)c(F)c(F)c4n3C)cc3ccc1nc32 (stereo partly drawn) [Example 566, (2~{R},5~{R},7~{R})-14-[5-[(1~{R},4~{R},7~{R})-7-amino-2-azabicyclo [2.2.1]heptane-2-carbonyl]-6,7-difluoro-1-methyl-benzimidazol-2-yl]-11,11-difluoro-2-methyl-3,13,19-triazatetracyclo[11.5.2.0^ {5,7).0^{16,20}]icosa-1(19),14,16(20),17-tetraen-4-one]
36 nM	COc1cc(C(=O)N2[C@H]3CC[C@@H]2[C@H](N)C3)cc2nc(-c3cc4ccc5nc4n3CCCCOCC(=O)N[C@@H]5C)c(C)n12 [Example 324, (10~{R})-16-[7-[(1~{R},2~{R},4~{S})-2-amino-7-azabicyclo[2.2.1]heptane-7-carbonyl]-5-methoxy-3-methyl-imidazo[1,2-a]pyridin-2-yl]-10-methyl-6-oxa-1,9,18-triazatricyclo[9.5.2.0^{14,17}]octadeca-11(18),12,14(17),15-tetraen-8-one]
44 nM	C[C@H]1NC(=O)[C@@H]2C[C@@H]2C/C=C\CCn2c(-c3nc4cc(C(=O)N[C@H]5CNCC[C@@H]5F)c(F)cc4n3C3CC3)cc3ccc1nc32 [Example 519, 1-cyclopropyl-6-fluoro-~{N}-[(3~{S},4~{S})-4-fluoro-3-piperidyl]-2-[(2~{R}, 5~{R},7~{S},9~{Z})-2-methyl-4-oxo-3,13,19-triazatetracyclo[11.5.2.0^ {5,7}.0^{16,20}]icosa-1 (19),9,14,16(20),17-pentaen-14-yl]benzimidazole-5-carboxamide]
